Results reported in US20250049803A1, “COMBINATION OF A TASK1/3 CHANNEL BLOCKER WITH A NOREPINEPHRINE REUPTAKE INHIBITOR FOR THE TREATMENT OF SLEEP APNEA” (priority 2021, published 2025).

Legend:
[1] = tested on: upper airway collapsibility; assay: pig model of obstructive sleep apnea (OSA): collapse of the upper respiratory tract under negative pressure; format: in vivo, German Landrace pigs; parameters: efficacy of the dose on upper airway collapsibility: dose or concentration left out as unconfirmed
Text: The therapeutic potential of the combination of a TASK1/3 channel blocker with a norepinephrine reuptake inhibitor according to the present invention in sleep apnea can be assessed preclinically in a pig model of obstructive sleep apnea (OSA).
German Landrace pigs are used for the model. The pigs are anaesthetized and tracheotomized. Two tracheal cannulas are inserted into the trachea, one into the rostral part and the other into the caudal part of the trachea. Using a connection piece, the rostral cannula is connected to a tube to the negative pressure device and to the distal tracheal cannula. The distal tracheal cannula is additionally connected to a tube with an open end to atmosphere via a connection piece that served for free tracheal breathing, circumventing the upper airway. By appropriate opening and clamping of those tubes breathing can be switched from nasal breathing to breathing through the caudal tracheal cannula, circumventing the upper airway, and the (isolated) upper airway can be connected to the negative pressure device, causing airflow in the inspiratory direction.
At certain points in time, the collapsibility of the upper respiratory tract is tested by having the pig breathe via the caudal cannula and applying negative pressures of −50, −100 and −150 cm water head (cm H2O) to the upper respiratory tract. This causes the upper respiratory tract to collapse, which manifests itself in an interruption of the airflow and a pressure drop in the tube system. This test is conducted prior to the administration of the test substance and at certain intervals after the administration of the test substance. An appropriately effective test substance can prevent this collapse of the respiratory tract in the inspiratory phase.

[2] = plasma concentrations of atomoxetine in the OSA pig model; format: in vivo, pigs; conditions: atomoxetine dose used in the combination (i.v. bolus 20 μg/kg + infusion 12.5 μg/kg/h), FIG. 3
[3] = intranasal 0.3 μg at 0 min, alone, time 0 min (time of administration)
[4] = intranasal 0.3 μg at 0 min, alone, time 10 min
[5] = intranasal 0.3 μg at 0 min, alone, time 30 min
[6] = intranasal 0.3 μg at 0 min, alone, time 60 min
[7] = intranasal 0.3 μg at 0 min, alone, time 90 min
[8] = atomoxetine i.v. bolus 20 μg/kg + infusion 12.5 μg/kg/h for four hours from 0 min, time 0 min (time of administration)
[9] = atomoxetine i.v. bolus 20 μg/kg + infusion 12.5 μg/kg/h for four hours from 0 min, time 10 min
[10] = atomoxetine i.v. bolus 20 μg/kg + infusion 12.5 μg/kg/h for four hours from 0 min, time 30 min
[11] = atomoxetine i.v. bolus 20 μg/kg + infusion 12.5 μg/kg/h for four hours from 0 min, time 60 min
[12] = atomoxetine i.v. bolus 20 μg/kg + infusion 12.5 μg/kg/h for four hours from 0 min, time 90 min (time of nasal application of TASK1/3 channel blocker)

With `COc1ccc(Cl)c(C(=O)N2C3CCC2CN(Cc2c(-c4ccc(C(C)C)cc4)nc4ncccn24)C3)n1` [(3-Chloro-6-methoxypyridin-2-yl)(3-{[2-(4-isopropylphenyl)imidazo[1,2-a]pyrimidin-3-yl]methyl}-3,8-diazabicyclo[3.2.1]oct-8-yl)methanone] the “efficacy of the dose on upper airway collapsibility” value ([1]; TASK1/TASK3 channel blocker alone) was “non effective dose”, the “Percent pigs without collaps −50 cm H2O, %” value [1, 3] was 0% and the “Percent pigs without collaps −50 cm H2O, %” value [1, 4] was 33%. The “Percent pigs without collaps −50 cm H2O, %” value [1, 5] was 0%, the “Percent pigs without collaps −50 cm H2O, %” value [1, 6] was 0% and the “Percent pigs without collaps −50 cm H2O, %” value [1, 7] was 0%. For the same molecule, the “Percent pigs without collaps −100 cm H2O, %” value [1, 3] was 0%, the “Percent pigs without collaps −100 cm H2O, %” value [1, 4] was 33% and the “Percent pigs without collaps −100 cm H2O, %” value [1, 5] was 0%. The “Percent pigs without collaps −100 cm H2O, %” value [1, 6] was 0%, the “Percent pigs without collaps −100 cm H2O, %” value [1, 7] was 0% and the “Percent pigs without collaps −150 cm H2O, %” value [1, 3] was 0%. For the same molecule, the “Percent pigs without collaps −150 cm H2O, %” value [1, 4] was 0%, the “Percent pigs without collaps −150 cm H2O, %” value [1, 5] was 0% and the “Percent pigs without collaps −150 cm H2O, %” value [1, 6] was 0%. For the same molecule, the “Percent pigs without collaps −150 cm H2O, %” value [1, 7] was 0%.
In the case of `CNCC[C@@H](Oc1ccccc1C)c1ccccc1` [atomoxetine, Atomoxetine], the plasma concentrations [2] is reported as “about 100 nM”, the “inhibition of upper airway collapsibility” value ([1]; atomoxetine alone, i.v. bolus 20 μg/kg + infusion 12.5 μg/kg/h, 30 min after bolus injection and start of infusion) is reported as “inhibited only at a negative pressure of −50 and −100 cm head” and the “inhibition of upper airway collapsibility” value ([1]; atomoxetine alone, i.v. bolus 20 μg/kg + infusion 12.5 μg/kg/h, 60 min after administration) is reported as “inhibited only at a negative pressure of −50 cm head”. For the same molecule, the upper airway collapsibility ([1]; atomoxetine alone, i.v. bolus 20 μg/kg + infusion 12.5 μg/kg/h, 90 min after bolus injection and start of infusion) was “induced at all negative pressures”, the “time points at which upper airway collapsibility was inhibited at all three negative pressures of −50, −100 and −150 cm head (cm H2O) in all pigs” value ([1]; atomoxetine alone, i.v. bolus 20 μg/kg followed by infusion 12.5 μg/kg/h for four hours) was “at no time point” and the “Percent pigs without collaps −50 cm H2O, %” value [1, 8] was 0%. For the same molecule, the “Percent pigs without collaps −50 cm H2O, %” value [1, 9] was 67%, the “Percent pigs without collaps −50 cm H2O, %” value [1, 10] was 100% and the “Percent pigs without collaps −50 cm H2O, %” value [1, 11] was 100%. The “Percent pigs without collaps −50 cm H2O, %” value [1, 12] was 0%, the “Percent pigs without collaps −100 cm H2O, %” value [1, 8] was 0% and the “Percent pigs without collaps −100 cm H2O, %” value [1, 9] was 0%. For the same molecule, the “Percent pigs without collaps −100 cm H2O, %” value [1, 10] was 100%, the “Percent pigs without collaps −100 cm H2O, %” value [1, 11] was 0% and the “Percent pigs without collaps −100 cm H2O, %” value [1, 12] was 0%. The “Percent pigs without collaps −150 cm H2O, %” value [1, 8] was 0%, the “Percent pigs without collaps −150 cm H2O, %” value [1, 9] was 0% and the “Percent pigs without collaps −150 cm H2O, %” value [1, 10] was 0%. The “Percent pigs without collaps −150 cm H2O, %” value [1, 11] was 0% and the “Percent pigs without collaps −150 cm H2O, %” value [1, 12] was 0%.
